Test results published in patent US20260035750A1, “TRANSCRIPTIONAL REGULATORS OF THE TEAD FAMILY” (Sanofi, priority 2022, published 2026).
Entries after “also recorded” stand apart in the source; their conditions may differ.

Experiments:
[1] = tested on: TEAD-dependent transcription; assay: TEAD-500 score as pharmacodynamic marker in NCI-H226 xenograft tumors; assay type: in vivo; details: SCID mice, 200 mg/kg BID, in 24 h, sufficient for tumor regression
Description: (§1) TEAD-dependent transcription was scored in single samples as the difference Rp-Rn, where Rp is the mean fractional rank of the positive TEAD-effectors, and Rn, that of the negative effectors.
(§2) In vivo efficacy studies of the K-975 compound were performed in SCID mice inoculated subcutaneously into the right flank with 3×10^6 MSTO-211H or NCI-H226 cells. Mice bearing around 200 mm3 subcutaneous MSTO-211H tumors or 150 mm3 subcutaneous NCI-H226 tumors were randomly assigned to […] of 8 mice/group and treated with either vehicle or K-975 compound twice daily at 30, 100, and 200 mg/kg for 18 consecutive days. Tumor perpendicular diameters were measured twice a week with a caliper, and tumor volume (V) was calculated according to the following equation: V (mm3)=(d2 (mm2)×D (mm))/2, where d is the smallest, and D the largest perpendicular tumor diameters.
Fresh tumors were preserved in RNAlater (Thermo Fisher) and frozen at […]. Copurification of miRNA and total RNA was performed using a miRNeasy Mini Kit (QIAGEN, 217004). The RNA concentration and purity were evaluated with an ND-1000 spectrophotometer (NanoDrop, Thermo Fisher). Quality metrics are the RNA Integrity Number (RIN) and DV200 value (% of RNA fragments with a length≥200 nt). 100 ng total RNA per sample was used as input material for the library preparation. […]

CYR61 = CYR61 (CCN1) marker of TEAD activity, RNA and protein (ELISA) level, in NCI-H226 cells; assay type: cell-based, human; details: NCI-H226 cells in vitro, treated for 24 hours
Description: The latter protein markers were measured by ELISA assays. Cell lysates were diluted 1/500 in cell lysis buffer. A minimum of four biologic replicates were analyzed for each model. In the reading plate, standards and samples are run in duplicate. hCYR61 was assessed using the human Cyr61 Quantikine™ Colorimetric Sandwich ELISA Kit (R&D Systems, Minneapolis, MN). Diluted lysates were processed and analyzed as described in the manufacturer's instructions. Absorbance values were read using a microplate reader set to 450 nm.
So did the RNA and protein levels of the classical secreted marker of Hippo pathway activity, CYR61 (FIG. 3C).

NCI-H226 cells = assay: In vivo efficacy in subcutaneous NCI-H226 xenografts in SCID mice; details: NCI-H226 xenograft
Description: Female CB17/Icr-Prkdc^scid/IcrIcoCrl mice (6-8 weeks old) were bred at Charles River (Les Oncins, France), housed in Sanofi AAALAC accredited animal facilities, and were provided with irradiated food and filtered water ad libitum.
as §2
The same type of events was observed when SCID mice implanted with malignant mesothelioma parental NCI-H226 cells were treated with 200 mg/kg BID of the benchmark TEAD-inhibitor K-975 (Kaneda A et al. Am J Cancer Res. 2020; 10(12):4399-4415) for 17 consecutive days (FIG. 5). […] The TEAD-500 score correlates, therefore, with tumor behavior under treatment and can be used as a marker of the pharmacodynamics or efficacy of a drug.

TEAD = assay: TEAD-500 score (TEAD-dependent transcription) in NCI-H226 cells grown in vitro; assay type: cell-based, human; details: NCI-H226 malignant mesothelioma cells in vitro, treated for 24 hours
Text: as §1
We considered the most abundant transcript of a gene as the representative of the expression of the gene. We, therefore, retain the expression level of the major transcript (maximum level-value per gene and sample, level values may be expression-array signals, RNA sequencing counts, fragments per kilobase per million counts (FPKM), transcripts per million (TPM), or whatever other metric is conveniently used) and discarded the values of all other transcripts. The maximum expression levels of the genes were transformed into fractional ranks by dividing with the maximum expression value of all genes (most abundant gene) observed within a sample. No other normalization is required.
All cell lines were grown at 37° C. under five percent CO2. MSTO-211H (#CRL-2081), NCI-H226 (#CRL-5826), NCI-H2052 (#CRL-5915), NCI-H28 (#CRL-5820), and HCT116 (#CCL-247) were purchased from the American Type Culture Collection (ATCC, Manassas, VA, USA) and cultured according to supplier's recommendation. […]
Fresh tumors were preserved in RNAlater (Thermo Fisher) and frozen at […]. […] The RNA concentration and purity were evaluated with an ND-1000 spectrophotometer (NanoDrop, Thermo Fisher). […]

## C=CC(=O)Nc1ccc(C)c(Oc2ccc(Cl)cc2)c1 [K-975]
[1]
  inhibition of the TEAD-dependent transcription (TEAD-500 score): 30-40%
CYR61
  RNA level of CYR61 (CCN1): inhibition; also recorded: regressed in a dose-dependent manner
  protein level of CYR61 (CCN1): inhibition; also recorded: regressed in a dose-dependent manner
NCI-H226 cells; 30 mg/kg BID
  tumor behavior under treatment: inactive
NCI-H226 cells; 100 mg/kg BID
  tumor behavior under treatment: almost tumor stasis
  ΔT/ΔC: 12
NCI-H226 cells; 200 mg/kg BID, 17 consecutive days
  tumor behavior under treatment: tumor regression
TEAD
  TEAD-500 score: Dose-dependent regression; also recorded: regressed in a dose-dependent manner
